Assay results from paper PMC9965625, “Endocannabinoid 2-Arachidonoylglycerol Synthesis and Metabolism at Neuronal Nuclear Matrix Fractions Derived from Adult Rat Brain Cortex” (International Journal of Molecular Sciences, 2023).

Target: T1, α/β-hydrolase domain 12 protein (ABHD12) (Rattus norvegicus, UniProt Q6AYT7)
T1 construct: native enzyme in nuclear matrix fraction of adult rat brain cortex
T1 sequence (Q6AYT7 1-398): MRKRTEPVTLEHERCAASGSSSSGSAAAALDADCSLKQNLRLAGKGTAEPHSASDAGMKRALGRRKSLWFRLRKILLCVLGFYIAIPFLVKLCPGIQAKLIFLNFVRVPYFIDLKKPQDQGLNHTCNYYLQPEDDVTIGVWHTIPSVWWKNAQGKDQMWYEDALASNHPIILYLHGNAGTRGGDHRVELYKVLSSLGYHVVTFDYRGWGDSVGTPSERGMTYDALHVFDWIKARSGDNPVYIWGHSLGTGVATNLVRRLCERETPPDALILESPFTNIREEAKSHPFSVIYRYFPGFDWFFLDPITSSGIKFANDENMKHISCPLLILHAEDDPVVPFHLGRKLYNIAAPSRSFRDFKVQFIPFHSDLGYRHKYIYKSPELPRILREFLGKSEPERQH
Test: LC/MS/MS of arachidonic acid formed from […] exogenous 2-AG in nuclear matrix fraction, blocked by MAFP
Format: cell-based

CCCCC/C=C\C/C=C\C/C=C\C/C=C\CCCC(=O)OC(CO)CO [2-AG]
LC/MS/MS of arachidonic acid formed from 10 μM exogenous 2-AG in nuclear matrix: ABHD12 is the main responsible for the hydrolysis of 2-AG in the nuclear matrix
